Results taken from ChEMBL document CHEMBL5465560, “Selectivity Literature for EUbOPEN Chemogenomic Library” (2024).
Values belong to the molecule of their own block, whether it stands above or below them.

How the values were obtained:
[1] = biological target: T1, Atypical kinase COQ8B, mitochondrial (Homo sapiens) (UniProt Q96D53); conditions: at 10 µM
T1 sequence (whole entry): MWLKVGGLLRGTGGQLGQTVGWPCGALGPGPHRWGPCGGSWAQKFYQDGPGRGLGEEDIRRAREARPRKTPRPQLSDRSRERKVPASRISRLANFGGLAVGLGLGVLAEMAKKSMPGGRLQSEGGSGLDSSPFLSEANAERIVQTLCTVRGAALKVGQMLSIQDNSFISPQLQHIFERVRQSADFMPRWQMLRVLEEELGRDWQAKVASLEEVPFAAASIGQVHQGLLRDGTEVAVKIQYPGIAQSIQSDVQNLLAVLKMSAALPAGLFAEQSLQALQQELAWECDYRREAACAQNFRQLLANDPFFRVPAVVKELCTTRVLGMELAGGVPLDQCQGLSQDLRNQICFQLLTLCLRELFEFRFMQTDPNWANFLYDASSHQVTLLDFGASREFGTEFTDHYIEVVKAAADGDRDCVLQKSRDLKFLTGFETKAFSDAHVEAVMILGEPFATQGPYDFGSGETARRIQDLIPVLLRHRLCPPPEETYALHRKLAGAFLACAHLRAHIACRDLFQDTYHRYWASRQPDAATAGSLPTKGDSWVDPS

[2] = biological target: T2, cAMP-dependent protein kinase catalytic subunit PRKX (Homo sapiens) (UniProt P51817); test: Selectivity interaction (KinomeScan (DiscoverX)) EUB0001049a PRKX; conditions: at 1 µM
T2 sequence (whole entry): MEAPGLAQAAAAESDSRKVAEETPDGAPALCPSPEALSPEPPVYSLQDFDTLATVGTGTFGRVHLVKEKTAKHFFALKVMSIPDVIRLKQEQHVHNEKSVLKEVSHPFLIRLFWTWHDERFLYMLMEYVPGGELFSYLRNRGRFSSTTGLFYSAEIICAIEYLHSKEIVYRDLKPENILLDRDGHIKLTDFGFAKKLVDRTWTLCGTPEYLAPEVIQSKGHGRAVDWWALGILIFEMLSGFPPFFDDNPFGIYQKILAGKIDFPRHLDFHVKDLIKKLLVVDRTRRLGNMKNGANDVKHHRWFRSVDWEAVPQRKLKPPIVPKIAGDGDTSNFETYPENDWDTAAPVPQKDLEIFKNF

[3] = biological target: T3, Serine/threonine-protein kinase 17A (Homo sapiens) (UniProt Q9UEE5); test: Selectivity interaction (KinomeScan (DiscoverX)) EUB0001049a STK17A; conditions: at 1 µM
T3 sequence (whole entry): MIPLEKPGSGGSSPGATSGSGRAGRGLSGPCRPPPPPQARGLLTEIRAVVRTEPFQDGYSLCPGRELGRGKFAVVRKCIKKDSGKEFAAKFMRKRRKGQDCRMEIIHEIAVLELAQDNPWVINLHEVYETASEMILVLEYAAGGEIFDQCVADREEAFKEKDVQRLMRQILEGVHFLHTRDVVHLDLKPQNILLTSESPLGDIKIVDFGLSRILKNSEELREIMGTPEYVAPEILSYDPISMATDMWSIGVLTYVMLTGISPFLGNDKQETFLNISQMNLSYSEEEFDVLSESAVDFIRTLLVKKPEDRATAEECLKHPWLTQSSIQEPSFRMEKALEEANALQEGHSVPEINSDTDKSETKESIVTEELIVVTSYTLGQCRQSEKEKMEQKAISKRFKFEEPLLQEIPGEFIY

[4] = biological target: STE20-like serine/threonine-protein kinase (Homo sapiens, UniProt Q9H2G2); test: Selectivity interaction (LanthaScreen Eu Kinase Binding Assay) EUB0001632a SLK; conditions: at 10 µM
STE20-like serine/threonine-protein kinase, sequence (Q9H2G2 whole entry, looked up): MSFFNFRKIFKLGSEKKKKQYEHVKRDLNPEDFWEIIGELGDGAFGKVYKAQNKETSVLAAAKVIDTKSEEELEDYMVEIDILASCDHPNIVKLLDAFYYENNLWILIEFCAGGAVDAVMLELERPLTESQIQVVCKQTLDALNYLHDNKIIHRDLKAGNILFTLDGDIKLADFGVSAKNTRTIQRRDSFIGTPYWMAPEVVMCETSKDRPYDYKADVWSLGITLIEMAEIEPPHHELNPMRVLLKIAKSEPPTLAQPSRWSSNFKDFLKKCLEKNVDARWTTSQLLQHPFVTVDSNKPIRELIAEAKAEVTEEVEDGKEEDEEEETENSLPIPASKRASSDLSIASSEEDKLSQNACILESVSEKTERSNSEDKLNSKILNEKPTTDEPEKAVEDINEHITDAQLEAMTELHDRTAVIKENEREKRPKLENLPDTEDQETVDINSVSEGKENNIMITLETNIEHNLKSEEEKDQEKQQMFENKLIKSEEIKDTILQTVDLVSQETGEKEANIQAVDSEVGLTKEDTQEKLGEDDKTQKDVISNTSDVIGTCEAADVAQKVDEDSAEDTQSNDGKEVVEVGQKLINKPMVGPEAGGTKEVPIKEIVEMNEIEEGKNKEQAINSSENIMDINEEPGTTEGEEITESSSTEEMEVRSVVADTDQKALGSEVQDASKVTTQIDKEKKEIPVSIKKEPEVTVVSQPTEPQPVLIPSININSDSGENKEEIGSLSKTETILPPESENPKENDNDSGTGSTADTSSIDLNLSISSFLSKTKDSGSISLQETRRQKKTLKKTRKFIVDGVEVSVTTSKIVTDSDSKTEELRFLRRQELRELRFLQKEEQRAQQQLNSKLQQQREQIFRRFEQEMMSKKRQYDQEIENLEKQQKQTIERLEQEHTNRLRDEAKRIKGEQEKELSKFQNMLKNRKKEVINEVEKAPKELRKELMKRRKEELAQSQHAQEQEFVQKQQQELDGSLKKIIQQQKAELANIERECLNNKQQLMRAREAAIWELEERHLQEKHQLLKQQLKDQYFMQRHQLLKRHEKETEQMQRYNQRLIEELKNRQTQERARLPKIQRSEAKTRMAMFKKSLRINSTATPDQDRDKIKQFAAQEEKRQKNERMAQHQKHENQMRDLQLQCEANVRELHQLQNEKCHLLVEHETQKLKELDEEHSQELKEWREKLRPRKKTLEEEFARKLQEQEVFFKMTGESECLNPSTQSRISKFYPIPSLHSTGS

[5] = biological target: Delta-type opioid receptor (Homo sapiens, UniProt P41143); test: Selectivity interaction (Eurofins CEREP Diversity Profile (receptors and ion channels)) EUB0000279b OPRD1; conditions: at 10 µM
Delta-type opioid receptor, sequence (P41143 whole entry): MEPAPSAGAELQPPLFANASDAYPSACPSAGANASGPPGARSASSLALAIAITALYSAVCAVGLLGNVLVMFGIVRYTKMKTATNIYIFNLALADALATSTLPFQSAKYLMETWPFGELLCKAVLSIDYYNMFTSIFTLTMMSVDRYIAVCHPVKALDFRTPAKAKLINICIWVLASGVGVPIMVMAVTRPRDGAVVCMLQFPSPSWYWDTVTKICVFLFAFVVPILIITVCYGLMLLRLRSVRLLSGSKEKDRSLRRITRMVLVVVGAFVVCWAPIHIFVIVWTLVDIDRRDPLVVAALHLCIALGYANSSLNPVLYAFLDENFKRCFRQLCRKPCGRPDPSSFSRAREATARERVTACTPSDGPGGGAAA

[6] = biological target: Tyrosine-protein kinase Fes/Fps (Homo sapiens) (UniProt P07332); conditions: at 10 µM
Tyrosine-protein kinase Fes/Fps (Homo sapiens), sequence (P07332 whole entry): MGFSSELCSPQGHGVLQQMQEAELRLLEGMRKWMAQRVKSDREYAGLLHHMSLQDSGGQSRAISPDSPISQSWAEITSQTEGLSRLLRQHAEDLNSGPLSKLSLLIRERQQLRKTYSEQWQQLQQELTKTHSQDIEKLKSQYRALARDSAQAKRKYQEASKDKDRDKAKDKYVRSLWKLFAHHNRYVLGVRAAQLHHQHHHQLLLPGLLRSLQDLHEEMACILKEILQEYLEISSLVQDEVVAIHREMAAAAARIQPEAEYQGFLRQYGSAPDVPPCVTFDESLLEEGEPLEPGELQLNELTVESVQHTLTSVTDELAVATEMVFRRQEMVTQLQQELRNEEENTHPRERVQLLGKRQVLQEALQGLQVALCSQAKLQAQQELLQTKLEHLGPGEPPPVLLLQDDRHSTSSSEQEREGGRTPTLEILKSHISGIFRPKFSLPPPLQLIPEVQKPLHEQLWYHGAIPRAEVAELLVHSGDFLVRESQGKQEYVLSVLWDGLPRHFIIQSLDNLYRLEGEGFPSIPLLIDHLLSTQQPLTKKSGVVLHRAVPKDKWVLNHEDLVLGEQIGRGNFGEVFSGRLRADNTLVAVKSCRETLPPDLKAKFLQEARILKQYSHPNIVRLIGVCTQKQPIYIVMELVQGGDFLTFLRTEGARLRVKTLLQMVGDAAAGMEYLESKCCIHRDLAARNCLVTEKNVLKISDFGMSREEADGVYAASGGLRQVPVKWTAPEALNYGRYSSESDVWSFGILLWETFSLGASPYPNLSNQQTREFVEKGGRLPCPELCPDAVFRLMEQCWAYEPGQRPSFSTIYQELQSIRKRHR

[7] = biological target: RAF proto-oncogene serine/threonine-protein kinase (Homo sapiens) (UniProt P04049); test: Selectivity interaction (KinomeScan (DiscoverX)) EUB0000229b RAF1; conditions: at 10 µM
RAF proto-oncogene serine/threonine-protein kinase (Homo sapiens), sequence (P04049 whole entry): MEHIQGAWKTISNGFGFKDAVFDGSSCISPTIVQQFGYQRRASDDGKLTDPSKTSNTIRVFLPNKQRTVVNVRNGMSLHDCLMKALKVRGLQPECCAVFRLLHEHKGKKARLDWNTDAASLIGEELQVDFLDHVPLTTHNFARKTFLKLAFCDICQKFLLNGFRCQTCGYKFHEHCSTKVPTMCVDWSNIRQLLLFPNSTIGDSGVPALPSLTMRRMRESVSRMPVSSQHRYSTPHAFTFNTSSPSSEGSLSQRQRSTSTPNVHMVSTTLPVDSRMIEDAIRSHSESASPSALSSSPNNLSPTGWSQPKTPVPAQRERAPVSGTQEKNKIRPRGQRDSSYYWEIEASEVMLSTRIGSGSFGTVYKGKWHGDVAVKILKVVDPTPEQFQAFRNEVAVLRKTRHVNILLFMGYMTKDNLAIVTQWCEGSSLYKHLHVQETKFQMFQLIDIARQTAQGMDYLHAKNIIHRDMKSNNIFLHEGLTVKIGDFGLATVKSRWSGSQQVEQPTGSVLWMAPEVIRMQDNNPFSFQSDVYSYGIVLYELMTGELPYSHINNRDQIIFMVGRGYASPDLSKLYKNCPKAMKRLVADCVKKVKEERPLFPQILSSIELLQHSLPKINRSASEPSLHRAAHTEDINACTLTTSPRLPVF

[8] = biological target: Calcium/calmodulin-dependent protein kinase type II subunit beta (Homo sapiens) (UniProt Q13554); test: Selectivity interaction (ProQinase) EUB0000171b CAMK2B
Calcium/calmodulin-dependent protein kinase type II subunit beta (Homo sapiens), sequence (Q13554 whole entry): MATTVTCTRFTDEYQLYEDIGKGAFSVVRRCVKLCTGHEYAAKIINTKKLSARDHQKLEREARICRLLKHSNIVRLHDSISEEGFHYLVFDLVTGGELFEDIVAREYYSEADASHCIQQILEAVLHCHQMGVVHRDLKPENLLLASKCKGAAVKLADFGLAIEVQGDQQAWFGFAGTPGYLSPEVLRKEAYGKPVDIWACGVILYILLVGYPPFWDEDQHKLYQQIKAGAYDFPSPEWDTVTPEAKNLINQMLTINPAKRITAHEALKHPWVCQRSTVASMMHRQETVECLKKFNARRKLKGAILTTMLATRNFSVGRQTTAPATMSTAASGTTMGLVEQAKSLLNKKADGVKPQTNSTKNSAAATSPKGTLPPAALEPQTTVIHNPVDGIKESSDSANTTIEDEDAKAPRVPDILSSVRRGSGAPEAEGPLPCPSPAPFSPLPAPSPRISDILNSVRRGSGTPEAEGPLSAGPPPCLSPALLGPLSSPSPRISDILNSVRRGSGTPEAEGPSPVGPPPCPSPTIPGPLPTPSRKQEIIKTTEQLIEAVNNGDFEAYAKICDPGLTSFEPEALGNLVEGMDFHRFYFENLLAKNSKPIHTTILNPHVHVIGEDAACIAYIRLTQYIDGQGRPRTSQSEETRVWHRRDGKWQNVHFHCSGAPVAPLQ

[9] = biological target: 5-hydroxytryptamine receptor 2B (Homo sapiens, UniProt P41595); test: Selectivity interaction (Eurofins safety panel) EUB0001564a HTR2B; conditions: at 10 µM
5-hydroxytryptamine receptor 2B, sequence (P41595 whole entry): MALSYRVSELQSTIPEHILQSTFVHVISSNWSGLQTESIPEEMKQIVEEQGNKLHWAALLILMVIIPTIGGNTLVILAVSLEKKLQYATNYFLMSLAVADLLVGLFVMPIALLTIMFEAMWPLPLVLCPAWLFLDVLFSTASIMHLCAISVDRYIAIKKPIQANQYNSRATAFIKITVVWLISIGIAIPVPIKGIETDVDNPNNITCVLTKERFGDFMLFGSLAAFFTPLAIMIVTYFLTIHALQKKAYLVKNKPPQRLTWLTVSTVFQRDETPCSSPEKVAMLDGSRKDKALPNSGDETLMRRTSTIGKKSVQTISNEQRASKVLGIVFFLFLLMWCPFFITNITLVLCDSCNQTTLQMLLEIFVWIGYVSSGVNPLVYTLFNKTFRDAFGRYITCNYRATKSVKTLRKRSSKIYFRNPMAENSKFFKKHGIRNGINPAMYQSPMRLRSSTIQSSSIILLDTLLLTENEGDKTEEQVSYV

[10] = biological target: Mitogen-activated protein kinase kinase kinase 4 (Homo sapiens) (UniProt Q9Y6R4); test: Selectivity interaction (KinomeScan (DiscoverX)) EUB0000655a MAP3K4; conditions: at 10 µM
[11] = biological target: Tyrosine-protein kinase JAK1 (Homo sapiens, UniProt P23458); test: Selectivity interaction (ActivX KiNativ screen (ex vivo kinase selectivity in human PBMCs)) EUB0001619a JAK1; format: cell-based; conditions: PBMC, at 1 µM
[12] = biological target: Tyrosine-protein kinase SYK (Homo sapiens, UniProt P43405); test: Selectivity interaction (ActivX KiNativ screen (ex vivo kinase selectivity in human PBMCs)) EUB0001619a SYK; format: cell-based; conditions: PBMC, at 1 µM
[13] = biological target: T4, Testis-specific serine/threonine-protein kinase 2 (Homo sapiens) (UniProt Q96PF2); test: Selectivity interaction (SelectScreen profiling (Invitrogen)) EUB0000607a TSSK2; conditions: at 2 µM
T4 sequence (whole entry): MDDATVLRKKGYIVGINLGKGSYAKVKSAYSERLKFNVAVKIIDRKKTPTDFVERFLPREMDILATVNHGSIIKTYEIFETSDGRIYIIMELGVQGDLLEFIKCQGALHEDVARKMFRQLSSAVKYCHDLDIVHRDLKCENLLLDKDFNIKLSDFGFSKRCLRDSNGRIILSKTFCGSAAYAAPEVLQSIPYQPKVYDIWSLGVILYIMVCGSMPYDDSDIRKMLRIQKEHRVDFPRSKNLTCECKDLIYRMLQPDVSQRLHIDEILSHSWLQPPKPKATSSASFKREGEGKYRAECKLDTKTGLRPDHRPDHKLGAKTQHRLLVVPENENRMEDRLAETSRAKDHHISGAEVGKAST

MAO-B (MAOB) = MAO-B (MAOB) (Homo sapiens, UniProt P27338); test: Selectivity interaction (Panel of kinases, GPCRs, ion channels and transporters (enzymatic assay)) EUB0000223bCl MAOB
MAO-B (MAOB), sequence (P27338 whole entry): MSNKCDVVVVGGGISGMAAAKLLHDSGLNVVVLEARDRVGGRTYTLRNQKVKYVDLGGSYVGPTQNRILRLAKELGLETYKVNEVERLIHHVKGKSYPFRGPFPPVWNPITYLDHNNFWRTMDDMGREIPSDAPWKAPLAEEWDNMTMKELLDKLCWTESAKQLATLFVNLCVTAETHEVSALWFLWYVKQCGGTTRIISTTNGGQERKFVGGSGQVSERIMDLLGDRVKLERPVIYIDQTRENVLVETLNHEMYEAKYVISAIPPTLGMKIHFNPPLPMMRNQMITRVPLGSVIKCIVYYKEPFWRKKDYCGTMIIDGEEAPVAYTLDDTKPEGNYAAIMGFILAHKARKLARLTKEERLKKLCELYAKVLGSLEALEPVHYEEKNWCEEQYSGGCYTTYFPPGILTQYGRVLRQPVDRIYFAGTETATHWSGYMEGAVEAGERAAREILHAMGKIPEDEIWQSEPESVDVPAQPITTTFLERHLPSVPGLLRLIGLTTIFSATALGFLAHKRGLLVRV

Structure (SMILES): Cc1cc([C@@H](C)Nc2ccccc2C(=O)O)c2nc(N3CCOCC3)cc(=O)n2c1 [AZD-6482]
% of control [1]: 79%

Structure (SMILES): COc1cc(Nc2nc(C)cc(-c3cnn4nc(OC)ccc34)n2)cc(C(F)(F)F)c1
% of control [2]: 87%
% of control [3]: 66%

% of inhibition [4]: -1.88%
Structure (SMILES): Cn1cc(-n2cnc3c(NCc4nc5cc(Cl)c(Cl)cc5[nH]4)nc(N4CCOCC4)nc32)cn1

% of control [5]: 91%
Structure (SMILES): CC(=O)c1cc(-c2ccccc2OCC2CC2)c2ncccn12

% of control [6]: 100%
Structure (SMILES): CCN(CC)CCCCNc1ncc2cc(-c3cc(OC)cc(OC)c3)c(NC(=O)NC(C)(C)C)nc2n1

Structure (SMILES): COc1cc(N(C)c2ccnc3ccc(C(F)(F)F)cc23)cc(OC)c1OC
% binding [7]: 91%

% of control ([8]; at 1 µM): 97%
% of control ([8]; at 5 µM): 79%
Structure (SMILES): C=CC(=O)Nc1cccc(C(=O)Nc2ccc(Nc3cc(-c4[nH]c(SC)nc4C)ccn3)cc2)c1

Structure (SMILES): CC[C@@H](Nc1c(C#N)c(-c2ccc(-c3cccc(C)c3F)cc2)nc2cnccc12)C(=O)O [BAY-091]
% of inhibition [9]: 98%

Structure (SMILES): CN(C)CCOc1ccc(-c2nc(-c3ccncc3)c(-c3ccc4c(c3)CC/C4=N\O)[nH]2)cc1
% of control [10]: 83%

Structure (SMILES): N#Cc1cccc(-c2c[nH]c3ncnc(N4CCOCC4)c23)c1
% of inhibition [11]: -4%
% of inhibition [12]: 6%

Structure (SMILES): CNC(=O)Nc1ccc(-c2nc(N3CC4CCC(C3)O4)c3cnn(C4CCC5(CC4)OCCO5)c3n2)cc1
% of inhibition [13]: 2%

Structure (SMILES): COc1cc(C(=O)N2CC[C@@H](O)[C@@H](N)C2)cc2nc(-c3cc4ccccc4n3CC3CC3)n(C)c12
XC50 (MAO-B (MAOB)): 15.8 µM
